Test results: BindingDB's records for patent US11981680 (Bristol Myers Squibb, 2024)

Molecular target: Protein-arginine deiminase type-4 (Homo sapiens, UniProt Q9UM07)
Assay: RFMS Human PAD4 Functional Assay
Description: Compounds were solubilized in 100% DMSO to achieve a10 mM compound concentration. Compound stock solutions were stored at RT. A series of dilutions were prepared in DMSO and mixed 8 times with 20 μL mixing volume. Final top concentration of compound in the assay is 50 μM. Final assay conditions were as follows:Reaction volume: 26 μlAssay buffer: 25 mM hepes, pH 7.5, 5 mM NaCl, 1 mM DTT, 0.2 mg/ml BSA, 0.01% CHAPS, 50 μM Calcium, and 5 μM TPENFinal concentrations: 5 nM hPAD4 enzyme, 250 μM BAEE, and 0.5% DMSOTotal incubation time: 30 mins compound and enzyme preincubation at 37° C., 90 min enzyme/substrate reaction, 30 min reaction with phenyl glyoxal at 37° C.Stop solution: 40 μl 5% TCA in ACN0.13 μL of compound solution was added to 13 μL of 10 nM PAD4 in assay buffer. After 30 min 13 μl of 500 μM of BAEE was added in 25 mM hepes, pH 7.5, 5 mM NaCl, 1 mM DTT, 0.2 mg/ml BSA, 0.01% CHAPS, 50 μM Calcium, 5 μM TPEN was added and the reaction incubated for 90 min at 37° C. The enzymatic reaction was quenched by addition of 15 μl of 6.1N TCA, 100% Final Concentration is 20%, 35 μl of 8.5 mM phenyl glyoxal (final concentration 4 mM) is then added and the reaction is incubated for 30 min at 37° C.After 30 minutes the plates are spun down to remove all precipitate. The enzyme reaction was quenched with an equal volume of methanol containing internal standard (modified citrulline). […]

Sequence of Protein-arginine deiminase type-4 (Q9UM07 whole entry): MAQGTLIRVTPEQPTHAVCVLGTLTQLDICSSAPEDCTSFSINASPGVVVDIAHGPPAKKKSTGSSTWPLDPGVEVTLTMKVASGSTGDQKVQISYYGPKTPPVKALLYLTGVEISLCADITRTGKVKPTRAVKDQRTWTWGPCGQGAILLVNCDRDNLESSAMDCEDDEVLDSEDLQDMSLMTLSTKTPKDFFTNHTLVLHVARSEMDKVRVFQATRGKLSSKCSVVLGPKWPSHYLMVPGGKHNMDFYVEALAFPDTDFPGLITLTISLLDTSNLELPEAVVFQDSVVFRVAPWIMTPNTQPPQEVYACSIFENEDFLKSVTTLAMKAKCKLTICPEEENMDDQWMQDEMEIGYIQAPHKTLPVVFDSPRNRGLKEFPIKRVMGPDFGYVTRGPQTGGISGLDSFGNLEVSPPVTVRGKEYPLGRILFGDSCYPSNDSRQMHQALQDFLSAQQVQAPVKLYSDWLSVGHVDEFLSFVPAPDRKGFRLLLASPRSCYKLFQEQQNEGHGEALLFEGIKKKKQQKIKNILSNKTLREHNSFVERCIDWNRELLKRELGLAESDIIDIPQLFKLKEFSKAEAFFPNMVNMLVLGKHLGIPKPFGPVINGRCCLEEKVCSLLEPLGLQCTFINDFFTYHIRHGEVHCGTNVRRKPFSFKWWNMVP

IC50: 35 nM
Compound: COc1cc(C(=O)N2C[C@H]3CC[C@@H]2[C@@H]3N)cc2nc(-c3cc4scc(-c5cn[nH]c5)c4n3CC3CC3)n(C)c12 [US11981680, Example 39]
